According to patent US9617289B2, “RSV antiviral compounds” (JANSSEN R&D IRELAND, priority 2012, dated 2017):
Read-outs that look alike come from different tables or passages of the source.

Tested on: rgRSV224 virus
Experiment: Antiviral activity: inhibition of rgRSV224 (GFP-expressing RSV) replication in HeLa cells
Format: cell-based, respiratory syncytial virus
Conditions: human respiratory syncytial virus, HeLa, 72 h
Method in brief: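 HeLa cells infected with GFP-expressing rgRSV224 at MOI 0.02 alongside 4-fold compound dilutions in duplicate (0.5% DMSO). Incubated 3 days at 37 °C; EC50 taken as 50% inhibition of GFP expression by laser microscopy. CC50 measured in parallel uninfected cells by ATP content after 3 days; SI = CC50/EC50.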

[1] = read-out: pEC50, rgRSV224 (MOI=0.02) in HeLa cells, GFP expression three days post-virus exposure (converted)
[2] = read-out: RSV-wt_pEC50, rgRSV224 (MOI=0.02) in HeLa cells, GFP expression three days post-virus exposure

SMILES	EC50 [1] [nM]	EC50 [2] [nM]
CS(=O)(=O)CCCn1c(CN2C(=O)C3(CCNCC3)c3ccncc32)cc2cc(Cl)ccc21 [Compound 2, 1′-({5-chloro-1-[3-(methylsulfonyl)propyl]-1H-indol-2-yl}methyl)spiro[piperidine-4,3′-pyrrolo[2,3-c]pyridin]-2′(1′H)-one]	50.1	–
CS(=O)(=O)CCCn1c(CN2C(=O)C3(CCN(c4ccc(Cl)nn4)CC3)c3ccccc32)nc2cc(Cl)ccc21 [Compound 15, 1-((5-chloro-1-(3-(methylsulfonyl)propyl)-1H-benzo[d]-imidazol-2-yl)methyl)-1′-(6-chloropyridazin-3-yl)spiro-[indoline-3,4′-piperidin]-2-one]	< 0.158	–
CS(=O)(=O)CCCn1c(CN2C(=O)C3(CCN(S(=O)(=O)c4ccc(C#N)cc4)CC3)c3ccccc32)nc2cc(Cl)ccc21 [Compound 18, 4-(1-((5-chloro-1-(3-(methylsulfonyl)propyl)-1H-benzo[d]-imidazol-2-yl)methyl)-2-oxospiro[indoline-3,4′-piperidine]-1′-ylsulfonyl) benzonitrile]	1.26	–
N#CCCCn1c(CN2C(=O)C3(CN(C(=O)C4(O)CC4)C3)c3ccccc32)cc2cc(Cl)ccc21 [Compound 137]	–	0.107
CC(C)(C)OC(=O)N1CCC2(CC1)C(=O)N(Cc1cc3cc(Cl)ccc3n1CCCC#N)c1cnccc12 [Compound 63, tert-butyl 1′-((5-chloro-1-(3-cyanopropyl)-1H-indol-2-yl)-methyl)-2′-oxo-1′,2′-dihydrospiro[piperidine-4,3′-pyrrolo-[2,3-c]pyridine]-1-carboxylate]	0.158	–
CC(C)(C)OC(=O)N1CCC2(CC1)C(=O)N(Cc1nc3cc(Cl)ccc3n1CCCS(C)(=O)=O)c1ccccc12 [Compound 39, tert-butyl 1-((5-chloro-1-(3-(methylsulfonyl)propyl)-1H-benzo[d]imidazol-2-yl)methyl)-2-oxospiro[indoline-3,4′-piperidine]-1′-carboxylate]	0.631	–
CC(C)COC(=O)N1CC2(C1)C(=O)N(Cc1nc3cc(Cl)ccc3n1CCCC(F)(F)F)c1ccccc12 [Compound 45, isobutyl 1′-((5-chloro-1-(4,4,4-trifluorobutyl)-1H-benzo[d]-imidazol-2-yl)methyl)-2′-oxospiro[azetidine-3,3′-indoline]-1-carboxylate]	0.398	–
CS(=O)(=O)CCCn1c(CN2C(=O)C3(CCNCC3)c3c(Cl)cccc32)nc2cc(Cl)ccc21 [Compound 26, 4-chloro-1-({5-chloro-1-[3-(methylsulfonyl)propyl]-1H-benzimidazol-2-yl}methyl)spiro[indole-3,4′-piperidin]-2(1H)-one]	316	–
NC(=O)CCCn1c(CN2C(=O)C3(CNC3)c3ccccc32)nc2cc(Cl)ccc21 [Compound 100, 4-{5-Chloro-2-[(2′-oxospiro[azetidine-3,3′-indol]-1′(2′H)-yl)methyl]-1H-benzimidazol-1-yl}butanamide]	–	263
CS(=O)(=O)CCCn1c(CN2C(=O)C3(CCN(C(=O)c4ccncc4)CC3)c3cc(Br)ccc32)nc2cc(Cl)ccc21 [Compound 22, 5-bromo-1-((5-chloro-1-(3-(methylsulfonyl)propyl)-1H-benzo[d]imidazol-2-yl)methyl)-1′-isonicotinoylspiro-[indoline-3,4′-piperidin]-2-one]	7.94	–
CC(=O)N1CCC2(CC1)C(=O)N(Cc1nc3cc(Cl)ccc3n1CCCS(C)(=O)=O)c1cnccc12 [Compound 42, 1-acetyl-1′-((5-chloro-1-(3-(methylsulfonyl)propyl)-1H-benzo[d]imidazol-2-yl)methyl)spiro[piperidine-4,3′-pyrrolo-[2,3-c]pyridin]-2′(1′H)-one]	< 0.158	–
CC(C)(O)C(=O)N1CCC2(CC1)C(=O)N(Cc1c(C(N)=O)c3cc(Cl)ccc3n1CCCCF)c1cnccc12 [Compound 153, 5-Chloro-1-(4-fluorobutyl)-2-{[1-(2-hydroxy-2-methylpropanoyl)-2′-oxospiro[piperidine-4,3′-pyrrolo[2,3-c]pyridin]-1′(2′H)-yl]methyl}-1H-indole-3-carboxamide]	–	0.0575
N#CCCCn1c(CN2C(=O)C3(CCS(=O)(=O)CC3)c3ccncc32)nc2cc(Cl)ccc21 [Compound 108, 4-{5-Chloro-2-[(1′,1′-dioxido-2-oxo-2′,3′,5′,6′,-tetrahydro-spiro[pyrrolo[2,3-c]pyridine-3,4′-thiopyran]-1(2H)-yl)-methyl]-1H-benzimidazol-1-yl}butanenitrile]	–	0.871
O=C1N(Cc2nc3cc(Cl)ccc3n2CCCC(F)(F)F)c2ccccc2C12CNC2 [Compound 46, 1′-((5-chloro-1-(4,4,4-trifluorobutyl)-1H-benzo[d]imidazol-2-yl)methyl)spiro[azetidine-3,3-indolin]-2′-one]	0.631	–
O=C1N(Cc2nc3cc(Cl)ccc3n2CCCC(F)(F)F)c2ccccc2C12CCNCC2 [Compound 49, 1-((5-chloro-1-(4,4,4-trifluorobutyl)-1H-benzo[d]imidazol-2-yl)methyl) spiro[indoline-3,4′-piperidin]-2-one]	5.01	–
CC(C)(C)OC(=O)N1CCC2(CC1)C(=O)N(Cc1nc3cc(Cl)ccc3n1CCCC(F)(F)F)c1ccccc12 [Compound 48]	2.51	–
CC(C)(O)C(=O)N1CCC2(CC1)C(=O)N(Cc1cc3cc(Cl)ccc3n1CCCCO)c1cnccc12 [Compound 155, 1′-{[5-Chloro-1-(4-hydroxybutyl)-1H-indol-2-yl]methyl}-1 - (2-hydroxy-2-methylpropanoyl)spiro[piperidine-4,3′-pyrrolo[2,3-c]pyridin]-2′(1′H)-one]	–	0.17
CC(C)CCn1c(CN2C(=O)C3(CCN(C(=O)OC(C)(C)C)CC3)c3ccncc32)cc2cnccc21 [Compound 97, tert-Butyl 1′-{[1-(3-methylbutyl)-1H-pyrrolo[3,2-c]pyridin-2-yl]methyl}-2′-oxo-1,2′-dihydro-1H-spiro[piperidine-4,3′-pyrrolo[2,3-c]pyridine]-1-carboxylate]	–	1.45
N#CCCCn1c(CN2c3ccccc3[C@]3(C[C@@H](OC(=O)NC4CC4)C3)C2=O)nc2cc(Cl)ccc21 [Compound 173, (1r,3r)-1′-((5-chloro-1-(3-cyanopropyl)-1H-benzo[d]imidazol-2-yl)methyl)-2′-oxospiro[cyclobutane-1,3′-indolin]-3-yl cyclopropylcarbamate]	–	0.0224
O=C(Oc1ccc(F)cc1)N1CC2(C1)C(=O)N(Cc1nc3cc(Cl)ccc3n1CCCC(F)(F)F)c1ccccc12 [Compound 43, 4-fluorophenyl 1′-((5-chloro-1-(4,4,4-trifluorobutyl)-1H-benzo[d]imidazol-2-yl)methyl)-2′-oxospiro[azetidine-3,3′-indoline]-1-carboxytale]	0.251	–
CS(=O)(=O)CCCn1c(CN2C(=O)C3(CNC3)c3ccccc32)nc2cc(Cl)ccc21 [Compound 5, 1′-({5-chloro-1-[3-(methylsulfonyl)propyl]-1H-benzimidazol-2-yl}methyl)spiro[azetidine-3,3′-indol]-2′(1′H)-one]	5.01	–
CC(=O)N1CC2(C1)C(=O)N(Cc1nc3cc(Cl)ccc3n1CCCC#N)c1ccccc12 [Compound 88, 4-(2-((1-acetyl-2′-oxospiro[azetidine-3,3′-indolin]-1′-yl)-methyl)-5-chloro-1H-benzo[d]imidazol-1-yl)butanenitrile]	0.398	–
CC(C)(O)C(=O)N1CCC2(C1)C(=O)N(Cc1nc3cc(Cl)ccc3n1CCCC#N)c1ccccc12 (centres unmarked) [Compound 154, 4-(5-Chloro-2-{[1′-(2-hydroxy-2-methylpropanoyl)-2-oxospiro[indole-3,3′-pyrrolidin]-1(2H)-yl]methyl}-1H-benzimidazol-1-yl)butanenitrile]	–	1.17
N#CCCCn1c(CN2C(=O)C3(CN(C(=O)OC4COC4)C3)c3ccccc32)nc2cc(Cl)ccc21 [Compound 92, Oxetan-3-yl 1′-{[5-chloro-1-(3-cyanopropyl)-1H-benzimidazol-2-yl]methyl}-2′-oxo-1′,2′-dihydro-1H-spiro[azetidine-3,3′-indole]-1-carboxylate]	–	0.0692
N#CCCCn1c(CN2C(=O)C3(CN(C(=O)[C@@H](O)CO)C3)c3ccccc32)cc2cc(Cl)ccc21 (single isomer, unassigned) [Compound 129]	–	0.355
CC(C)(C)OC(=O)N1CCC2(CC1)C(=O)N(Cc1cc3cc(Cl)ccc3n1CCCS(C)(=O)=O)c1cnccc12 [Compound 1, tert-butyl 1′-({5-chloro-1-[3-(methylsulfonyl)propyl]-1H-indol-2-yl}methyl)-2′-oxo-1′,2′-dihydro-1H-spiro [piperidine-4,3′-pyrrolo[2,3-c]pyridine]-1-carboxylate]	0.631	–
CS(=O)(=O)CCCn1c(CN2C(=O)C3(CCCC3)c3ccncc32)nc2cc(Cl)ccc21 [Compound 37, 1′-((5-chloro-1-(3-(methylsulfonyl)propyl)-1H-benzo[d]-imidazol-2-yl)methyl)spiro[cyclopentane-1,3′-pyrrolo[2,3-c]pyridin]-2′(1′H)-one]	0.1	–
CC(C)OC(=O)N1CCC2(CC1)C(=O)N(Cc1nc3cc(Cl)ccc3n1CCCC#N)c1cnccc12 [Compound 99, 1-Methylethyl 1′-{[5-chloro-1-(3-cyanopropyl)-1H-benzimidazol-2-yl]methyl}-2′-oxo-1′,2′-dihydro-1H-spiro[piperidine-4,3′-pyrrolo[2,3-c]pyridine]-1-carboxylate]	–	0.024
COC(=O)N[C@H]1C[C@]2(C1)C(=O)N(Cc1nc3cc(Cl)ccc3n1CCCC#N)c1ccccc12 [Compound 135, methyl ((1s,3s)-1′-((5-chloro-1-(3-cyanopropyl)-1H-benzo[d]imidazol-2-yl)methyl)-2′-oxospiro[cyclobutane-1,3′-indolin]-3-yl)carbamate]	–	0.0955
